The text below walks through data of patent US20010025045A1, “Substituted isoquinoline derivatives and their use as anticonvulsants” (SmithKline Beecham p.l.c., priority 1997, published 2001).

This experiment relates to maximal (tonic hindlimb extension) electroshock seizures in male rats (Sprague Dawley). The experiment is described as follows: Rat MEST (maximal electroshock seizure threshold) test. It counts as in vivo. Conditions: 2 mg/kg p.o., suspension in methyl cellulose, one hour post dosing, statistically significant. How it is done: The maximal electroshock seizure (MEST) threshold test in rodents is particularly sensitive for detecting potential anticonvulsant properties ^1. In this model, anticonvulsant agents elevate the threshold to electrically-induced seizures whilst proconvulsants lower the seizure threshold.
The threshold for maximal (tonic hindlimb extension) electroshock seizures in male rats (Sprague Dawley, 80-150 g, 6 weeks old) was determined by a Hugo Sachs Electronik stimulator which delivered a constant current (0.3 sec duration; from 1-300mA in steps of 5-20mA). The procedure is similar to that outlined above for mouse and full details are as published by Upton et al.^4
The percentage increase or decrease in CC50 for each group compared to the control is calculated.
Drugs are suspended in 1% methyl cellulose.
In the case of `COc1cc(C(C)C)c(C#N)cc1C(=O)Nc1cccc2c1CCN(C)C2.Cl` [Example 10, N-(2-Methyl-1,2,3,4-tetrahydroisoquinolin-5-yl)-5-cyano-2-methoxy-4-iso-propylbenzamide, hydrochloride], the “increase in seizure threshold” value is listed as 152%.
Turning to `CCOc1cc(C(C)C)c(C(F)(F)F)cc1C(=O)Nc1cccc2c1CCN(C)C2` [Example 11, N-(2-Methyl-1,2,3,4-tetrahydroisoquinolin-5-yl)-2-ethoxy-4-iso-propyl-5-trifluoromethylbenzamide], the “increase in seizure threshold” value came out at 92%.
For the compound `CCOc1cc(C(C)C)c(C#N)cc1C(=O)Nc1cccc2c1CCN(C)C2.Cl` [Example 16, N-(2-Methyl-1,2,3,4-tetrahydroisoquinolin-5-yl)-5-cyano-2-ethoxy-4-iso-propylbenzamide, hydrochloride], the “increase in seizure threshold” value is 336%.
Next, `CCOc1cc(OC)c(C(=O)Nc2cccc3c2CCN(C)C3)cc1Br` [Example 17, N-(2-Methyl-1,2,3,4-tetrahydroisoquinolin-5-yl)-5-bromo-4-ethoxy-2-methoxybenzamide]: 403%.
With `COc1cc(OC)c(C(=O)Nc2cccc3c2CCN(C)C3)cc1C#N.Cl` [Example 23, N-(2-Methyl-1,2,3,4-tetrahydroisoquinolin-5-yl)-2,4-dimethoxy-5-cyanobenzamide, hydrochloride], the “increase in seizure threshold” value is recorded as 107%.
